Experimental data reported in US10301299B2, “Glycosidase inhibitors” (Merck Patent GmbH, priority 2013, dated 2019).
Like-named read-outs stand apart in the source and are kept apart here.

Experiments:
His-Tagged hOGA = target: T1, His-Tagged hOGA (Homo sapiens, UniProt O60502); experiment: Human O-GlcNAcase enzyme inhibition assay; type: biochemical
T1 sequence (O60502 1-916): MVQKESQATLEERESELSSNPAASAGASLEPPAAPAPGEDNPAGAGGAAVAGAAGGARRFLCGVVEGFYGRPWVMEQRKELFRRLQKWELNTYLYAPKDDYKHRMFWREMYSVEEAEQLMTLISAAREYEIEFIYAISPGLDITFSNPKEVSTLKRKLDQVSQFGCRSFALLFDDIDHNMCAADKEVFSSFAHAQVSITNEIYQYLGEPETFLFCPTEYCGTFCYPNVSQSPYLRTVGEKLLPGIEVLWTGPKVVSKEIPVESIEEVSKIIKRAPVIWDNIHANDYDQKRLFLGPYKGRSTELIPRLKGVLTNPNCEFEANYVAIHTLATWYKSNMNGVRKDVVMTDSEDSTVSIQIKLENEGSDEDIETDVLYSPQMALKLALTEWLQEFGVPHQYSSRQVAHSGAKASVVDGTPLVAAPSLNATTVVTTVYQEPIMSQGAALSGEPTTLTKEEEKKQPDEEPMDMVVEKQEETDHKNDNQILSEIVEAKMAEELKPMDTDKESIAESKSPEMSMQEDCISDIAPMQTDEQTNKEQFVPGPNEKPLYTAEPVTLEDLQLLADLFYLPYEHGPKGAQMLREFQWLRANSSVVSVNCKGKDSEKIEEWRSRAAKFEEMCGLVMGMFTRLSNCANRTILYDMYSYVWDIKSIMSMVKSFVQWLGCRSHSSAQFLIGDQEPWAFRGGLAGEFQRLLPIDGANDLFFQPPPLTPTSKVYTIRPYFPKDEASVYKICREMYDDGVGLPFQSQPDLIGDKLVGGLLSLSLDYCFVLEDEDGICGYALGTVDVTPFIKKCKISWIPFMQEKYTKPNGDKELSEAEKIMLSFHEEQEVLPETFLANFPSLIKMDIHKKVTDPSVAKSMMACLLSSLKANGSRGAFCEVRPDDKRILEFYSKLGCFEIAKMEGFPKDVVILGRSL
Method: The following reaction components were added to a final volume of 10 μL in Mcllvaine's Buffer (pH 6.5): 20 nM His-Tagged hOGA and 10 μM Fluorescein mono-beta-D-(2-deoxy-2-N-acetyl) glucopyranoside (FL-GlcNAc; Marker Gene Technologies Inc, Part # M1485). […] The amount of fluorescence measured was plotted against the concentration of inhibitor to produce a sigmoidal dose response curve, from which an IC50 was calculated.

[1] = system: B35 rat neuroblastoma cells; experiment: Cellular O-GlcNAcylation assay (tau O-GlcNAc S400, ICC); type: cell-based; conditions: Neuroblastoma cell, 16 h, tau O-GlcNAcylated at serine 400
Method: The following day cells were treated with appropriate concentration of a solution of inhibitor for 16 h at 37° C. in 5% CO2. Cells were fixed in 100 μl 4% paraformaldehyde for 15 min at room temperature, followed by three washes in PBS buffer. The cells were then permeabilized with 0.1% Triton X-100 for 60 min at room temperature. After three washes in PBS the cells were blocked with 10% goat serum containing 1% BSA in PBS buffer for two hours at room temperature. The cells were then incubated with a monoclonal rabbit antibody specific for tau O-GlcNAcylated at serine 400 (Epitomics) at a 1:1000 dilution overnight at 4° C. […] To calculate an EC50 the total peak intensity was plotted against the concentration of inhibitor to produce a sigmoidal dose response curve.

[2] = 20 nM His-Tagged hOGA, 10 μM FL-GlcNAc, pH 6.5, 60 min, read-out: hOGA enzyme inhibition (IC50)

Compound | IC50 (His-Tagged hOGA; [2]) | EC50 [1] | IC50 (His-Tagged hOGA)
CC(=O)Nc1ncc(CN2CCC(Cc3ccccc3)C(F)C2)s1 (single isomer, unassigned) [Compound 52, N-(5-((-4-BENZYL-3-FLUOROPIPERIDIN-1-YL)METHYL)THIAZOL-2-YL)ACETAMIDE] | < 0.2 µM | – | –
CC(=O)Nc1ncc(CN2CCC(c3ccccc3)CC2)s1 [Compound 1, N-(5-((4-phenylpiperidin-1-yl)methyl)thiazol-2-yl)acetamide] | < 0.2 µM | 0.2 to 1 µM | –
COC(=O)Nc1ncc(CN2CCC(c3ccccc3)CC2)s1 [Compound 2, [5-(4-Phenyl-piperidin-1-ylmethyl)-thiazol-2-yl]-carbamic acid methyl ester] | 1 to 10 µM | > 10 µM | –
CCC(=O)Nc1ncc(CN2CCC(c3ccccc3)CC2)s1 [Compound 3, N-(5-((4-phenylpiperidin-1-yl)methyl)thiazol-2-yl)propionamide] | 0.2 to 1 µM | – | –
C=CC(=O)Nc1ncc(CN2CCC(c3ccccc3)CC2)s1 [Compound 4, N-[5-(4-phenyl-piperidin-1-ylmethyl)-thiazol-2-yl]-acrylamide] | 1 to 10 µM | – | –
CCNc1ncc(CN2CCC(c3ccccc3)CC2)s1 [Compound 5, N-ethyl-5-((4-phenylpiperidin-1-yl)methyl)thiazol-2-amine] | > 10 µM | – | –
CCCNc1ncc(CN2CCC(c3ccccc3)CC2)s1 [Compound 6, 5-((4-phenylpiperidin-1-yl)methyl)-N-propylthiazol-2-amine] | > 10 µM | – | –
Cc1ncc(CN2CCC(c3ccccc3)CC2)s1 [Compound 7, 2-methyl-5-((4-phenylpiperidin-1-yl)methyl)thiazole] | > 10 µM | – | –
CCc1ncc(CN2CCC(c3ccccc3)CC2)s1 [Compound 8, 2-ethyl-5-((4-phenylpiperidin-1-yl)methyl)thiazole] | > 10 µM | – | –
CC(=O)N(C)c1ncc(CN2CCC(c3ccccc3)CC2)s1 [Compound 9, N-methyl-N-(5-((4-phenylpiperidin-1-yl)methyl)thiazol-2-yl)acetamide] | 1 to 10 µM | – | –
CNC(=O)Nc1ncc(CN2CCC(c3ccccc3)CC2)s1 [Compound 10, 1-methyl-3-(5-((4-phenylpiperidin-1-yl)methyl)thiazol-2-yl)urea] | 1 to 10 µM | – | –
CS(=O)(=O)Nc1ncc(CN2CCC(c3ccccc3)CC2)s1 [Compound 11, N-[5-(4-phenyl-piperidin-1-ylmethyl)-thiazol-2-yl]-methanesulfonamide] | > 10 µM | – | –
c1ccc(C2CCN(Cc3cnc(NC4CC4)s3)CC2)cc1 [Compound 12, N-cyclopropyl-5-((4-phenylpiperidin-1-yl)methyl)thiazol-2-amine] | > 10 µM | – | –
CC(=O)Nc1ncc(CN2CCC(c3ccccc3)CC2)o1 [Compound 13] | 1 to 10 µM | – | –
CC(=O)Nc1ncc(CN2CCC(c3ccc(C)cc3)CC2)s1 [Compound 14, N-(5-((4-(p-tolyl)piperidin-1-yl)methyl)thiazol-2-yl)acetamide] | < 0.2 µM | 0.2 to 1 µM | –
CC(=O)Nc1ncc(CN2CCC(C)CC2)s1 [Compound 15, N-[5-(4-methyl-piperidin-1-ylmethyl)-thiazol-2-yl]-acetamide] | 1 to 10 µM | – | –
COc1ccc(C2CCN(Cc3cnc(NC(C)=O)s3)CC2)cc1 [Compound 16, N-(5-((4-(4-methoxyphenyl)piperidin-1-yl)methyl)thiazol-2-yl)acetamide] | < 0.2 µM | 1 to 10 µM | –
CC(=O)Cc1ncc(CN2CCC(c3ccccc3)CC2)s1 [Compound 17] | > 10 µM | – | –
CCC(=O)Cc1ncc(CN2CCC(c3ccccc3)CC2)s1 [Compound 18] | > 10 µM | – | –
CC(=O)Nc1ncc(CN2CCN(c3ccccc3)CC2)s1 [Compound 19, N-[5-(4-phenyl-piperazin-1-ylmethyl)-thiazol-2-yl]-acetamide] | 0.2 to 1 µM | 1 to 10 µM | –
CC(=O)Nc1ncc(CNCCCc2ccccc2)s1 [Compound 20, N-{5-[(3-phenyl-propylamino)-methyl]-thiazol-2-yl}-acetamide] | 0.2 to 1 µM | 1 to 10 µM | –

Compound | IC50 (His-Tagged hOGA; [2]) | EC50 [1] | IC50 (His-Tagged hOGA)
CC(=O)Nc1ncc(CN2CCC(C#N)(c3ccccc3)CC2)s1 [Compound 23, N-[5-(4-cyano-4-phenyl-piperidin-1-ylmethyl)-thiazol-2-yl]-acetamide] | – | – | > 10 µM
CC(=O)Nc1ncc(CN2CCC(O)(c3ccccc3)CC2)s1 [Compound 24, N-[5-(4-hydroxy-4-phenyl-piperidin-1-ylmethyl)-thiazol-2-yl]-acetamide] | 1 to 10 µM | – | –
CC(=O)Nc1ncc(CN2CCC(N(C)C)CC2)s1 [Compound 34, N-(5-((4-(dimethylamino)piperidin-1-yl)methyl)thiazol-2-yl)acetamide] | > 10 µM | – | –
CC(=O)Nc1ncc(CN2CCC(c3ccccc3C(=O)O)CC2)s1 [Compound 44, 2-(1-((2-acetamidothiazol-5-yl)methyl)piperidin-4-yl)benzoic acid] | > 10 µM | – | –
CC(=O)Nc1ncc(CN2CCC(Cc3ccc(Cl)cc3)CC2)s1 [Compound 46, N-(5-((4-(4-chlorobenzyl)piperidin-1-yl)methyl)thiazol-2-yl)acetamide] | < 0.2 µM | – | –
CC(=O)Nc1ncc(CN2CCC(Cc3ccc4c(c3)OCO4)CC2)s1 [Compound 47] | < 0.2 µM | – | –
CC(=O)Nc1ncc(CN2CCC(Cc3ccc(F)cc3)CC2)s1 [Compound 48, N-(5-((4-(4-FLUOROBENZYL)PIPERIDIN-1-YL)METHYL)THIAZOL-2-YL)ACETAMIDE] | < 0.2 µM | – | –
CC(=O)Nc1ncc(CN2CCC(Cc3ccc(C(F)(F)F)cc3)CC2)s1 [Compound 49, N-(5-((4-(4-(TRIFLUOROMETHYL)BENZYL)PIPERIDIN-1-YL)METHYL)THIAZOL-2-YL)ACETAMIDE] | < 0.2 µM | – | –
CC(=O)Nc1ncc(CN2CCC(Cc3cccc(F)c3)CC2)s1 [Compound 50, N-(5-((4-(3-FLUOROBENZYL)PIPERIDIN-1-YL)METHYL)THIAZOL-2-YL)ACETAMIDE] | < 0.2 µM | – | –
CC(=O)Nc1ncc(CN2CCC(Cc3ccccc3)CC2C)s1 (centres unmarked) [Compound 51, N-(5-((4-BENZYL-2-METHYLPIPERIDIN-1-YL)METHYL)THIAZOL-2-YL)ACETAMIDE] | – | – | < 0.2 µM
CC(=O)Nc1ncc(CN2CCC(Cc3ccccc3)C(C)C2)s1 (centres unmarked) [Compound 53, N-(5-((4-BENZYL-3-METHYLPIPERIDIN-1-YL)METHYL)THIAZOL-2-YL)ACETAMIDE] | < 0.2 µM | – | –
CC(=O)Nc1ncc(CN2CCC(Cc3ccc(C)cc3)CC2)s1 [Compound 54, N-(5-((4-(4-METHYLBENZYL)PIPERIDIN-1-YL)METHYL)THIAZOL-2-YL)ACETAMIDE] | – | – | < 0.2 µM
COc1ccc(CC2CCN(Cc3cnc(NC(C)=O)s3)CC2)cc1 [Compound 55, N-(5-((4-(4-METHOXYBENZYL)PIPERIDIN-1-YL)METHYL)THIAZOL-2-YL)ACETAMIDE] | – | – | < 0.2 µM
CC(=O)Nc1ncc(CN2CCC(Cc3ccc4ccccc4c3)CC2)s1 [Compound 56] | < 0.2 µM | – | –
CC(=O)Nc1ncc(CN2CCN(C(C)c3ccc4c(c3)OCO4)CC2)s1 (centres unmarked) [Compound 58, N-(5-((4-(1-(BENZO[D][1,3]DIOXOL-5-YL)ETHYL)PIPERAZIN-1-YL)METHYL)THIAZOL-2-YL)ACETAMIDE] | 1 to 10 µM | – | –
CC(c1ccc2c(c1)OCO2)N1CCN(Cc2cnc(N3CCNC(=O)C3)s2)CC1 (centres unmarked) [Compound 59, 4-(5-((4-(1-(BENZO[D][1,3]DIOXOL-5-YL)ETHYL)PIPERAZIN-1-YL)METHYL)THIAZOL-2-YL)PIPERAZIN-2-ONE] | 1 to 10 µM | – | –
CC(=O)Nc1ncc(CN2CCC(Oc3ccccc3)CC2)s1 [Compound 61, N-(5-((4-PHENOXYPIPERIDIN-1-YL)METHYL)THIAZOL-2-YL)ACETAMIDE] | 0.2 to 1 µM | – | –
CC(=O)Nc1ncc(CN2CCC(CCc3ccccc3)CC2)s1 [Compound 62] | < 0.2 µM | – | –
CC(=O)Nc1ncc(CN2CCC(Cc3ccc4nccnc4c3)CC2)s1 [Compound 63] | < 0.2 µM | – | –
CC(=O)Nc1ncc(CN2CCC(Cc3cc(F)cc(F)c3)CC2)s1 [Compound 64, N-(5-((4-(3,5-DIFLUOROBENZYL)PIPERIDIN-1-YL)METHYL)THIAZOL-2-YL)ACETAMIDE] | < 0.2 µM | – | –
